Results on 61 molecules are retold here after Sander's compilation of Henry's law constants.

The nature of the data set: Henry solubility constant Hcp at 298.15 K (mol/(m3 Pa)).
Setting [1] is: reference: Fenclová et al. (2010).
The mark [2] stands for this setting: reference: Hovorka et al. (2019).
The mark [3] stands for this setting: reference: Charles and Destaillats (2005).
The mark [4] stands for this setting: reference: Kawamoto and Urano (1989).
Setting [5] is: reference: Fichan et al. (1999).
Setting [6] is: reference: Schuhfried et al. (2015).
[7] abbreviates: reference: Bakierowska and Trzeszczyński (2003).
Where [8] appears, read: reference: Buttery et al. (1971).
Setting [9] is: reference: Copolovici and Niinemets (2005).
Setting [10] is: reference: Bernauer and Dohnal (2008).
[11] abbreviates: reference: Souchon et al. (2004).
Where [12] appears, read: reference: Mackay et al. (1979).
The mark [13] stands for this setting: reference: Warner et al. (1980).

“And” between values parts separate entries of the source, which are not always exact repeats. Equal entries are not always repeated.

For the molecule `CC(C)CCO` [3-methyl-1-butanol], the “Henry solubility constant Hcp” value is 0.67 (reference: Ammari and Schroen (2019)); 0.82 under setting [1].
In the case of `CC(C)C(C)O` (stereo not given) [3-methyl-2-butanol], the “Henry solubility constant Hcp” value under setting [1] turned out to be 0.54.
For the molecule `CC(=O)C(C)C` [3-methyl-2-butanone], the “Henry solubility constant Hcp” value under setting [2] is 0.093.
With `Cc1cccc(C=O)c1` [3-methylbenzaldehyde], the “Henry solubility constant Hcp” value (reference: Wu et al. (2022b)) stood at 0.3.
Turning to `CC(C)CC(=O)O` [3-methylbutanoic acid], the “Henry solubility constant Hcp” value (reference: Amoore and Buttery (1978)) is 12; the “Henry solubility constant Hcp” value (reference: Khan and Brimblecombe (1992)) stood at 12; the “Henry solubility constant Hcp” value (reference: Khan et al. (1995)) worked out at 12; the “Henry solubility constant Hcp” value (reference: Kim and Kim (2016)) was determined as 27; the “Henry solubility constant Hcp” value (reference: von Hartungen et al. (2004)) worked out at 11.
For `Cc1c[nH]c2ccccc12` [3-methylindole], the “Henry solubility constant Hcp” value (reference: Wetlaufer et al. (1964)) was 2.9e-05.
As to `Cc1cccnc1` [3-methylpyridine], the “Henry solubility constant Hcp” value (reference: Chaintreau et al. (1995)) stood at 0.42.
For `CCC(O)CC` [3-pentanol], the “Henry solubility constant Hcp” value under setting [1] came out at 0.64.
For the molecule `CCC(CC)O[N+](=O)[O-]` [3-pentyl nitrate], for the setting “reference: Hauff et al. (1998)”, the “Henry solubility constant Hcp” value is 0.0038.
For the molecule `Brc1ccc(Oc2ccc(Br)cc2)cc1` [4,4'-dibromodiphenyl ether], under setting [3], the “Henry solubility constant Hcp” value was found to be 0.073.
Regarding `Clc1ccc(-c2ccc(Cl)cc2)cc1` [4,4'-dichlorobiphenyl], the “Henry solubility constant Hcp” value under setting [3] was found to be 0.035.
Regarding `O=C1OCc2c(Cl)c(Cl)c(Cl)c(Cl)c21` [4,5,6,7-tetrachlorophthalide], the “Henry solubility constant Hcp” value under setting [4] is 18.
For `CC(C)(C)CC(C)(C)c1ccc(O)cc1` [4-(1,1,3,3-tetramethylbutyl)-phenol], the “Henry solubility constant Hcp” value (reference: Xie et al. (2004)) amounted to 2.3.
As for `Brc1ccc(Oc2ccccc2)cc1` [4-bromodiphenyl ether], the “Henry solubility constant Hcp” value under setting [3] was determined as 0.058.
Regarding `COc1cc(C)ccc1O` [4-methyl-2-methoxyphenol], the “Henry solubility constant Hcp” value (reference: Sagebiel et al. (1992)) is 7.7 and 7.1.
As to `CC(=O)CC(C)C` [4-methyl-2-pentanone], the “Henry solubility constant Hcp” value is, setting by setting: under setting [2], 0.065; (reference: Kim et al. (2000)) 0.039.
Regarding `CCCc1ccc(O)c(OC)c1` [4-propylguaiacol], the “Henry solubility constant Hcp” value (reference: McFall et al. (2020)) worked out at 4.3.
For the molecule `CC(=O)CCC=C(C)C` [6-methyl-5-hepten-2-one], for the setting “reference: Wu et al. (2022b)”, the “Henry solubility constant Hcp” value stood at 0.12.
With `C=CC(=C)CCC=C(C)C` [7-methyl-3-methylene-1,6-octadiene], the “Henry solubility constant Hcp” value reads like this: under setting [5], 0.00087; under setting [6], 0.00036.
Consider `CC(C)(C)OC=O` [(1,1-dimethylethyl)-methanoate], for which the “Henry solubility constant Hcp” value (reference: Arp and Schmidt (2004)) was 0.014.
Take `CC1(C)[C@H]2CC[C@](C)(C2)[C@H]1O` [(1R)-1,3,3-trimethylbicyclo[2.2.1]heptan-2-ol]: the “Henry solubility constant Hcp” value under setting [5] turned out to be 0.36.
Consider `Cc1cc(Cl)ccc1OCC(=O)O` [(2-methyl-4-chlorophenoxy)acetic acid], for which the “Henry solubility constant Hcp” value (reference: Mabury and Crosby (1996)) was greater than 99.
For the molecule `C/C=C/CCl` [(E)-1-chloro-2-butene], under setting [7], the “Henry solubility constant Hcp” value came to 0.0031.
As to `CCCCCC/C=C/C=O` [(E)-2-nonenal], the “Henry solubility constant Hcp” value (reference: Roberts and Pollien (1997)) is 0.058.
`CCCCC/C=C/C=O` [(E)-2-octenal]: the “Henry solubility constant Hcp” value under setting [8] turned out to be 0.13.
On to `C/C=C/C(=O)C1=C(C)C=CCC1(C)C` [(E)-β-damascenone], for which the “Henry solubility constant Hcp” value (reference: Wieland et al. (2015)) is 0.32.
`C/C=C/C=C/C=O` [(E,E)-2,4-hexadienal]: the “Henry solubility constant Hcp” value under setting [8] was determined as 1.
On to `C=C(C)[C@H]1CC=C(C)CC1` [(R)-1-methyl-4-(1-methylethenyl)-cyclohexene], for which the “Henry solubility constant Hcp” value reads like this: under setting [9], 0.00035; under setting [6], 0.00038.
For the molecule `CC1=CC[C@H](C(C)C)C=C1` [(R)-(−)-α-phellandrene], the “Henry solubility constant Hcp” value under setting [6] came to 0.00034.
On to `C=C(C)[C@@H]1CC=C(C)CC1` [(S)-1-methyl-4-(1-methylethenyl)-cyclohexene], for which the “Henry solubility constant Hcp” value is, setting by setting: under setting [9], 0.00035; under setting [6], 0.00037.
Consider `C/C=C\CCl` [(Z)-1-chloro-2-butene], for which the “Henry solubility constant Hcp” value under setting [7] worked out at 0.0012.
Take `CC/C=C\CCC=O` [(Z)-4-heptenal]: the “Henry solubility constant Hcp” value (reference: Straver and de Loos (2005)) came to 0.088.
As to `CN1CCN(C)CC1` [N,N'-dimethylpiperazine], where the note is “reference: Nguyen (2013)”, the “Henry solubility constant Hcp” value came to 200.
On to `CN(Cl)Cl` [N,N-dichloromethylamine], for which the “Henry solubility constant Hcp” value (reference: Cimetiere and de Laat (2009)) amounted to 0.0033.
Take `OCCN1CCNCC1` [N-(2-hydroxyethyl)piperazine]: the “Henry solubility constant Hcp” value (reference: Nguyen (2013)) was found to be 2900.
As to `CC(=O)N1CCCC1` [N-acetylpyrrolidine], the “Henry solubility constant Hcp” value (reference: Gibbs et al. (1991)) stood at 6200.
For the molecule `CCCCNC(C)=O` [N-butylacetamide], the “Henry solubility constant Hcp” value (reference: Gibbs et al. (1991)) turned out to be 2700.
Consider `CNCCCN` [N-methyl-1,3-propanediamine], for which the “Henry solubility constant Hcp” value was 2100 (reference: Kim et al. (2008)) and 1400 (reference: Nguyen (2013)).
Turning to `CN1CCCC1=O` [N-methyl-2-pyrrolidone], the “Henry solubility constant Hcp” value is, setting by setting: (reference: Bernauer and Dohnal (2009)) 2100; (reference: Kim et al. (2000)) 3100.
In the case of `CNC(C)=O` [N-methylacetamide], the “Henry solubility constant Hcp” value under setting [10] stood at 3200.
Take `CN(CCO)CCO` [N-methyldiethanolamine]: the “Henry solubility constant Hcp” value reads like this: (reference: Kim et al. (2008)) 400000; (reference: Nguyen (2013)) 3900.
Turning to `CNC=O` [N-methylmethanamide], the “Henry solubility constant Hcp” value under setting [10] was 1500.
`CN1CCNCC1` [N-methylpiperazine]: the “Henry solubility constant Hcp” value (reference: Nguyen (2013)) came to 1800.
On to `CCN(CC)N=O` [N-nitrosodiethylamine], for which the “Henry solubility constant Hcp” value reads like this: (reference: Klein (1982)) 5.6; (reference: Thompson et al. (2018)) 0.012.
As for `CCN(CC)C(=O)SCc1ccc(Cl)cc1` [S-(4-chlorobenzyl) diethylthiocarbamate], under setting [4], the “Henry solubility constant Hcp” value was 4.9.
With `CCCN(CCC)C(=O)SCC` [S-ethyl dipropylthiocarbamate], the “Henry solubility constant Hcp” value stood at 0.038 (reference: Breiter et al. (1998)) and 0.56 (reference: Reyes-Pérez et al. (2008)).
Consider `CCCC(=O)SC` [S-methyl butanethioate], for which the “Henry solubility constant Hcp” value under setting [11] turned out to be 0.026.
Take `c1cc2c3c(cccc3c1)CC2` [acenaphthene]: the “Henry solubility constant Hcp” value by setting is: under setting [12], 0.068; under setting [13], 0.041.
`C1=Cc2cccc3cccc1c23` [acenaphthylene]: the “Henry solubility constant Hcp” value under setting [13] worked out at 0.087.
Same read-out and setting: the figure for `ClC1=C(Cl)[C@]2(Cl)[C@H]3[C@H]([C@@H]4C=C[C@H]3C4)[C@@]1(Cl)C2(Cl)Cl` [aldrin] is 0.02.
Turning to `C=CCN=C=S` [allyl isothiocyanate], the “Henry solubility constant Hcp” value under setting [11] is 0.021.
Take `C=CCSC` [allyl methyl sulfide]: the “Henry solubility constant Hcp” value (reference: Schuhfried et al. (2011)) stood at 0.0042.
As to `c1ccc2cc3ccccc3cc2c1` [anthracene], the “Henry solubility constant Hcp” value worked out at 0.2 (reference: Alaee et al. (1996)); 0.15 (reference: Bamford et al. (1999b)); 0.23 (reference: Reza and Trejo (2004)); 0.15 (reference: Southworth (1979)); 0.27 (reference: Webster et al. (1985)).
As to `[Ar]` [argon], the “Henry solubility constant Hcp” value was 1.4e-05 (reference: Ashton et al. (1968)); 1.4e-05 (reference: Cosgrove and Walkley (1981)); 1.4e-05 (reference: Crovetto et al. (1982)); 1.4e-05 (reference: Friedman (1954)); 1.4e-05 (reference: Krause and Benson (1989)); 1.4e-05 (reference: Lannung (1930)). In addition, the “Henry solubility constant Hcp” value reads like this: (reference: Morrison and Johnstone (1954)) 1.3e-05; (reference: Murray and Riley (1970)) 1.4e-05; (reference: Park et al. (1982)) 1.4e-05; (reference: Potter II and Clynne (1978)) 1.4e-05; (reference: Rettich et al. (1992)) 1.4e-05; (reference: Shoor et al. (1969)) 1.4e-05. In addition, the “Henry solubility constant Hcp” value is, setting by setting: (reference: Winkler (1906)) 1.5e-05; (reference: von Antropoff (1910)) 1.6e-05.
`O=Cc1ccccc1` [benzaldehyde]: the “Henry solubility constant Hcp” value runs as follows: (reference: Allen et al. (1998)) 0.35; (reference: Allou et al. (2011)) 0.32; under setting [11], 0.34.
For the molecule `[2H]c1c([2H])c([2H])c([2H])c([2H])c1[2H]` [benzene-d6], the “Henry solubility constant Hcp” value (reference: Wasik and Tsang (1970)) was determined as 0.0016.
Turning to `O=C(O)c1ccccc1` [benzenecarboxylic acid], the “Henry solubility constant Hcp” value (reference: Li et al. (2007)) is 290.
In the case of `N#Cc1ccccc1` [benzenenitrile], the “Henry solubility constant Hcp” value (reference: Lee et al. (2013)) is 0.29.
As for `c1ccc(-c2ccccc2)cc1` [biphenyl], under setting [12], the “Henry solubility constant Hcp” value amounted to 0.024.
`CC(CCl)OC(C)CCl` (stereo not given) [bis-(2-chloroisopropyl) ether]: under setting [4], the “Henry solubility constant Hcp” value was 0.42.
For `O=C(O)CBr` [bromoethanoic acid], under “reference: Bowden et al. (1998a)”, the “Henry solubility constant Hcp” value was found to be 1500.
